Here are results for six compounds from patent US9295697B2, “Episomal reprogramming with chemicals” (Cellular Dynamics International, Inc., priority 2009, dated 2016).

The test system of test [1] is human foreskin fibroblasts. The experiment in a line: Episomal reprogramming of human foreskin fibroblasts with chemical compounds on MEF feeders, alkaline phosphatase positive iPS cell colonies (Example 1). The test is classed as cell-based. As to conditions: for effect on episomal reprogramming when added to PD0325901, CHIR99021 and A-83-01: in combination with PD0325901 (0.5 μM), CHIR99021 (3 μM), A-83-01 (0.5 μM). From the text:
FIGS. 1A-1C. Improving episomal reprogramming of human foreskin fibroblasts with small chemical compounds. FIG. 1A. Episomal reprogramming vectors. pEF: the eukaryotic elongation factor 1α promoter; pCMV: the cytomegalovirus immediate-early promoter. Transgenes and other features of vectors are indicated by different colors as shown. FIG. 1B. Effects of different combinations of chemical compounds on episomal reprogramming efficiency. FF medium: human foreskin fibroblast culture medium; CM: human ES cell culture medium previously conditioned with irradiated mouse embryonic fibroblast feeder cells. bFGF was used at 100 ng/ml final concentration. B: BIX01294 (1 μM); P: PD0325901 (0.5 μM); C: CHIR99021 (3 μM); A: A-83-01 (0.5 μM). Total: total # of alkaline phosphatase positive iPS cell colonies; Large: # of large-size good undifferentiated alkaline phosphatase positive iPS cell colonies. FIG. 1C. Images of a good iPS cell colony obtained by episomal reprogramming in the presence of chemical compounds. Left: bright-field; right: alkaline phosphatase staining.
FIGS. 2A-2B. Improving episomal reprogramming of human foreskin fibroblasts with small chemical compounds. FIG. 2A. Effects of bFGF and different combinations of chemical compounds on episomal reprogramming efficiency. FF medium: human foreskin fibroblast culture medium; CM: human ES cell culture medium previously conditioned with irradiated mouse embryonic fibroblast feeder cells. bFGF was used at 100 ng/ml final concentration. H: HA-100 (10 μM); B: BIX01294 (1 μM); P: PD0325901 (0.5 μM); C: CHIR99021 (3 μM); A: A-83-01 (0.5 μM); L: hLIF (10 ng/ml). Total: total # of alkaline phosphatase positive iPS cell colonies; Large: # of large-size good undifferentiated alkaline phosphatase positive iPS cell colonies. FIG. 2B. Timing of chemical compound treatment on episomal reprogramming efficiency. CM supplemented with bFGF (100 ng/ml) and HA-100 (10 μM) was used in reprogramming culture.
FIGS. 4A-4B. Episomal reprogramming in defined medium supplemented with chemical compounds. FIG. 4A. Effect of different culture medium on episomal reprogramming in the presence of PD0325901 (0.5 μM), CHIR99021 (3 μM), A-83-01 (0.5 μM) and hLIF (10 ng/ml). FF medium: human foreskin fibroblast culture medium; CM: human ES cell culture medium previously conditioned with irradiated mouse embryonic fibroblast feeder cells. bFGF was used at 100 ng/ml final concentration. H: HA-100 (10 μM); B: BIX01294 (1 μM); P: PD0325901 (0.5 μM); C: CHIR99021 (3 μM); A: A-83-01 (0.5 μM); L: hLIF (10 ng/ml). Total: total # of alkaline phosphatase positive iPS cell colonies; Large: # of large-size good undifferentiated alkaline phosphatase positive iPS cell colonies. FIG. 4B. Sketch of the three-step reprogramming process for the derivation of normal human ES cell-like iPS cells and piPS cells.
For episomal reprogramming of human somatic cells, human foreskin fibroblasts, episomal vectors (FIG. 1A, 7.3 μg of pEP4EO2SCK2MEN2L and 3.2 μg of pEP4EO2SET2K) (Yu et al., 2009) were cotransfected into 1×10^6 cells via nucleofection (NHDF-VPD-1001 with program U-20, Amaxa, Walkersville, Md.). Transfected foreskin fibroblasts from each nucleofection were directly plated to 3×10-cm MEF-seeded dishes in fibroblast culture medium. For adult skin fibroblasts, 7.3 μg of pEP4EO2SCK2MEN2L and 6.4 μg of pEP4EO2SET2K were cotransfected into 1×10^6 cells via nucleofection (NHDF-VPD-1001 with program U-20, Amaxa). Transfected adult skin fibroblasts from each nucleofection were directly plated to 1×10-cm MEF-seeded dish in fibroblast culture medium due to lower cell survival. […]

Test [2] has as its system human foreskin fibroblasts. The experiment in a line: Episomal reprogramming of human foreskin fibroblasts with small molecules on MEF feeder cells, alkaline phosphatase positive colonies (Example 2). It counts as cell-based. The procedure: FIGS. 5A-5C. Improving episomal reprogramming efficiency with small molecules. FIG. 5A. Effects of PD0325901 (P, 0.5 μM), CHIR99021(C, 3 μM), A-83-01(A, 0.5 μM), hLIF (L, 1000 U/ml) and HA-100 (H, 10 μM) on episomal reprogramming. FIG. 5B Temporal requirement of small molecule treatment for improved episomal reprogramming. Transfected human foreskin fibroblasts were plated to MEF feeder cells. MEF-conditioned human ESC medium supplemented with 100 ng/ml bFGF (CM100) and small molecules was used to support reprogramming. Alkaline phosphatase positive iPSC colonies were counted on day 22-23 post-transfection. The number of iPSC colonies was from ˜0.33×10^6 input cells. Data shown are mean±standard error (s.e.m.) (n=3). FIG. 5C. Differentiation of the newly derived iPSCs (p3) in the presence of small molecules. […] The addition of bFGF in the culture medium had no effect. Black arrow: undifferentiated iPSC colonies; white arrows: differentiated colonies. Scale bars: 100 μm.
FIGS. 6A-6D. Developing feeder-free conditions for episomal reprogramming. FIG. 6A. Effects of MEF feeder cells, Matrigel™ and culture media on episomal reprogramming. Transfected human foreskin fibroblasts (p6) were plated to MEF feeder cell-seeded or Matrigel™-coated 10-cm dishes, and subjected to different reprogramming culture conditions. Alkaline phosphatase positive (AP^+) colonies were counted on day 18-21 post-transfection. The number of AP+ colonies was from ˜0.33×10^6 input cells. Data shown are mean±s.e.m. (n=3). N2B27: DMEM/F12 medium supplemented with N-2 and B-27; N2B27-100: N2B27 medium supplemented with 100 ng/ml bFGF. *marks piPSCs. FIG. 6B. Bright-field images of a piPSC colony from test 2 and a human ESC-like iPSC colony from test 1, 3 and 4. Scale bars: 100 μm. FIG. 6C. Quantitative RT-PCR analysis of OCT4 and NANOG expression in piPSC clone 1 to 4 (p3). Total: both endogenous and transgene expression. Human H1 ESCs (H1ESC, p32) were used as a control. Data shown are mean±s.e.m. (n=3). FIG. 6D. Temporal requirement of small molecule treatment for feeder-free episomal reprogramming using defined culture media. Transfected human foreskin fibroblasts (p7) were plated to Matrigel™-coated 10-cm dishes. N2B27-100 medium supplemented with PCALH was used to support reprogramming for different time windows (stage 2) followed by mTeSR1 for expansion. Alkaline phosphatase positive iPSC colonies were counted on day 22 post-transfection. The number of iPSC colonies was from ˜0.33×10^6 input cells. Data shown are mean±s.e.m. (n=3).
Episomal reprogramming vectors containing expression cassettes for human OCT4, SOX2, NANOG, LIN28, c-MYC, KLF4 and SV40LT transgenes were as previously described (Yu et al., 2009). Specifically, vector pEP4EO2SCK2MEN2L and pEP4EO2SET2K (combination 4) were used for reprogramming optimization. About 7.3 μg of vector pEP4EO2SCK2MEN2L and 3.2 μg of pEP4EO2SET2K were co-transfected into human neonatal foreskin fibroblasts via nucleofection (NHDF-VPD-1001 with U-20 program, Amaxa, Walkersville, Md.). Transfected fibroblasts (˜1.0×10^6 cells per nucleofection) were plated directly to 3×10-cm MEF-seeded dishes or 3×10-cm Matrigel™-coated dishes in fibroblast culture medium. The next day after transfection, fibroblast medium was replaced with MEF-conditioned human ESC medium supplemented with 100 ng/ml zbFGF (CM100), or chemically defined N2B27 medium (N2B27), or N2B27 medium supplemented with 100 ng/ml zbFGF (N2B27-100), or mTeSR1. The N2B27 medium consists of DMEM/F12 culture medium supplemented with N-2 supplement (1×, Invitrogen), B-27 supplement (1×, Invitrogen), 0.1 mM non-essential amino acids, 1 mM GlutaMAX, and 0.1 mM β-mercaptoethanol. Where applied, small molecules PD0325901 (P, 0.5 μM), CHIR99021(C, 3 μM), A-83-01(A, 0.5 μM) (all from Stemgent, San Diego, Calif.), hLIF (L, 1000 U/ml, Millipore, Billerica, Mass.) and HA-100 (H, 10 μM) were added to reprogramming culture. Culture medium was refreshed every two days. […]

The mark [3] stands for this setting: LIF added to PD0325901, CHIR99021 and A-83-01.

On to hLIF: human leukemia inhibitory factor, for which, in test [1] (setting [3]), the “first appearance of iPS cells, day post transfection” value was roughly 14 days; the “first appearance of iPS cells, earlier by” value fell in the range of 3 to 4 days; the “large iPS cell colonies” value was “more large iPS cell colonies”. The “effect on episomal reprogramming when added to PD0325901, CHIR99021 and A-83-01” value in test [1] is “further facilitated”. In test [2] (hLIF 1000 U/ml), the “effect of hLIF on episomal reprogramming efficiency” value is listed as “did not significantly improve” and the “proliferation of reprogramming intermediates” value is listed as “increased”.
Consider `COc1cc2nc(N3CCCN(C)CC3)nc(NC3CCN(Cc4ccccc4)CC3)c2cc1OC` [BIX01294], for which the “effect on reprogramming by episomal vectors, compound on its own” value in test [1] (BIX01294 1 μM) was “could improve reprogramming”. The “effect on episomal reprogramming when added to PD0325901, CHIR99021 and A-83-01” value in test [1] is “no or only slight benefit”.
In the case of `O=S(=O)(c1cccc2cnccc12)N1CCNCC1` [HA-100], in test [2] (CM100, MEF feeder cells), the “effect on episomal reprogramming, alone / on its own” value is recorded as “minimal effect”. Moreover, the “episomal reprogramming efficiency in the presence of PD0325901, CHIR99021, A-83-01 and hLIF” value in test [2] (HA-100 10 μM) is “further increased”.
Regarding `Cc1cccc(-c2nn(C(=S)Nc3ccccc3)cc2-c2ccnc3ccccc23)n1` [A-83-01, 3-(6-Methyl-2-pyridinyl)-N-phenyl-4-(4-quinolinyl)-1H-pyrazole-1-carbothioamide], in test [2] (CM100, MEF feeder cells), the “effect on episomal reprogramming, alone / on its own” value is “minimal effect” and the “effect on episomal reprogramming, together with the MEK inhibitor PD0325901” value was “minimal effect”.
On to `Cc1ccc2c(c1)C(=O)C1(O)CCN(c3ccccc3)C1=N2` (centres unmarked) [blebbistatin], for which the “replacement of HA-100 in episomal reprogramming” value in test [2] was “could not be replaced”.
Still for that read-out and setting: under `Cc1cncc2cccc(S(=O)(=O)N3CCCNC[C@@H]3C)c12` [H-1152] stands “could not be replaced”.
